From ChEMBL document CHEMBL5241070, “Overview of all-trans-retinoic acid (ATRA) and its analogues: Structures, activities, and mechanisms in acute promyelocytic leukaemia” (Eur J Med Chem, 2021) come the findings set out here.

The GI50 is the concentration that inhibits growth by half. By CC50 is commonly meant the concentration giving 50% cytotoxicity. By IC50 is commonly meant the concentration needed to halve the response being measured. In general, MIC refers to the smallest concentration in the dilution series that meets the test's criterion for growth inhibition.

Converted amounts (≈) assume the structure as drawn.

One assay concerns MDA-MB-231. Put plainly: Antiproliferative activity against human MDA-MB-231 cells assessed as inhibition of cell growth. Type of assay: functional, cell-based.
The next assay deals with HL-60. Nature of the assay: Antiproliferative activity against human HL-60 cells assessed as cell growth inhibition measured after 72 hrs by trypan blue staining based assay. The class given is functional.
The subject of a further assay is SCL-1. Put plainly: Induction of apoptosis in human SCL-1 cells by flow cytometry assay. The class given is functional. As to conditions: read-out: MEC.
The next assay deals with MCF7. Put plainly: Antiproliferative activity in human MCF7 cells assessed as cell growth inhibition measured after 72 hrs by cell counting assay. Type of assay: functional.
The next assay deals with HT-29. Put plainly: Antiproliferative activity against human HT-29 cells assessed as inhibition of cell growth measured after 48 hrs by MTT assay. Type of assay: functional.
Assay [1] concerns ME-180. Nature of the assay: Antiproliferative activity against human ME-180 cells assessed as inhibition of cell growth. The class given is functional.
Assay [2] is described as follows: Antiproliferative activity against human U87MG Human EGFR vIII cells assessed as inhibition of cell growth measured after 24 hrs by MTT assay. Type of assay: functional. On the technique in general: Tetrazolium dyes change colour on reduction, which living cells bring about.
In the next assay the test system is Y79. Nature of the assay: Antiproliferative activity against human Y79 cells assessed as inhibition of cell growth measured after 72 hrs by MTT assay. Type of assay: functional.
Assay [3] can be described thus: Antiproliferative activity against human A2774 cells assessed as inhibition of cell growth measured after 72 hrs by XTT assay. The class given is functional.
The next assay relates to A-375. Put plainly: Antiproliferative activity against human A-375 cells assessed as inhibition of cell growth measured after 24 hrs by WST-8 assay. Type of assay: functional.
Assay [4] in a line: Antiproliferative activity against human UM-SCC-38 cells assessed as inhibition of cell growth. Type of assay: functional, cell-based.
The next assay deals with NB-4. Put plainly: Antiproliferative activity against human NB-4 cells assessed as inhibition of cell growth measured after 96 hrs by MTT assay. The class given is functional.
For another assay, the system named is MOLM-13. Put plainly: Antiproliferative activity against human MOLM-13 cells assessed as inhibition of cell growth measured after 96 hrs by WST-8 assay. Type of assay: functional.
The next assay relates to PC-3. Put plainly: Antiproliferative activity against human PC-3 cells assessed as inhibition of cell growth measured after 24 hrs by MTT assay. Type of assay: functional.
Another assay deals with A2780. Put plainly: Antiproliferative activity against human A2780 cells assessed as inhibition of cell growth measured after 72 hrs by SRB assay. Type of assay: functional, cell-based. The following applies: A2780, 72 h. Background: The SRB assay estimates cell density from bound dye.
Another assay concerns Staphylococcus aureus. Nature of the assay: Antibacterial activity against methicillin-resistant Staphylococcus aureus assessed as bacterial growth inhibition. Type of assay: functional.
For assay [5], the system named is ME-180. Put plainly: Antiproliferative activity against human ME-180 cells assessed as inhibition of cell growth by [3H]-thymidine incorporation based liquid scintillation counter analysis. Type of assay: functional. (Dividing cells build labelled thymidine or BrdU into new DNA.)
The test system of assay [6] is ME-180. Nature of the assay: Antiproliferative activity against human ME-180 ells assessed as inhibition of cell growth. Type of assay: functional, cell-based.

On to `CCCC(=O)OCc1ccc(OC(=O)/C=C(C)/C=C/C=C(C)/C=C/C2=C(C)CCCC2(C)C)cc1`, for which the GI50 in the assay with MDA-MB-231 turned out to be 10 nM.

For the compound `CC1=C(/C=C/C(C)=C/C=C/C(C)=C/C(=O)O)C(C)(C)CCC1` [TRETINOIN], the CC50 was 23 nM in the assay with HL-60; 20 nM in the assay with MCF7; 4300 nM in the assay with HT-29; 80 nM in the assay with ME-180 [1]; 82 nM in assay [3]; 1500 nM in the assay on NB-4. The values for the CC50 in the assay on MOLM-13 and in the assay on PC-3 were 1240 nM and 12700 nM, respectively. In the assay on SCL-1, the minimal effective concentration was no more than 10 µM. Also, the MCC was 40 µM in [2], 2000 nM with Y79 and greater than 100 µM in the assay on A-375. The IC50 in assay [4] worked out at 5000 nM.

For `CC1=C(/C=C/C(C)=C/C=C/C(C)=C/C(=O)Nc2ccc(O)cc2)C(C)(C)CC/C1=N\OCC(=O)O`, the IC50 in the assay with A2780 worked out at 970 nM.

On to `O=C(O)/C=C/c1ccc(-c2ccc(O)c(C34CC5CC(CC(C5)C3)C4)c2)cc1` [ADAROTENE], for which, in the assay with Staphylococcus aureus, the MIC was 1 µg/mL (≈ 2.67 µM).

On to `CC(/C=C/C=C(\C)c1cc(C(C)(C)C)cc(C(C)(C)C)c1)=C\C(=O)O`, for which the IC50 with ME-180 [5] came out at 1 nM.

As for `O=C(O)c1ccc2cc(-c3ccc(O)c(C45CC6CC(CC(C6)C4)C5)c3)ccc2c1` [O-DEMETHYLATED ADAPALENE], the MIC in the assay with Staphylococcus aureus turned out to be 1 µg/mL (≈ 2.51 µM).

For `C/C(=C/C=C/C(C)=C/C(=O)O)c1cc(C(C)(C)C)cc(C(C)(C)C)c1`, the IC50 in the assay on ME-180 [6] is 20 nM.

For `CC1=C(/C=C/C(C)=C/C=C/C(C)=C/C(=O)Nc2ccc(F)cc2)C(C)(C)CCC1n1ccnc1` (stereo unspecified), the IC50 in the assay on MDA-MB-231 was found to be 890 nM.

Regarding `O=C(O)c1ccc(-c2ccc3cc(O)c(C45CC6CC(CC(C6)C4)C5)cc3c2)cc1`, the MIC in the assay on Staphylococcus aureus stood at 1 µg/mL (≈ 2.51 µM).
